From PubChem BioAssay AID248 (DTP/NCI, 2004)
Toxic doses and inconclusive results are not listed.

System: L1210 leukemia ip in BDF1 mice, survival T/C
Assay: NCI In Vivo Anticancer Drug Screen. Data for tumor model L1210 Leukemia (intraperitoneal) in B6D2F1 (BDF1) mice
Details: higher = longer survival
How it was run: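 Ratio derived from survival: compound-dosed mice over vehicle-dosed mice, all bearing a transplantable tumor.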

[1] = endpoint: mean survival time, dose: 100.0 mg/kg/injection, schedule: Q01DX001 (ip), vehicle: saline
[2] = endpoint: mean survival time, dose: 200.0 mg/kg/injection, schedule: Q01DX001 (ip), vehicle: saline
[3] = endpoint: mean survival time, dose: 400.0 mg/kg/injection, schedule: Q01DX001 (ip), vehicle: saline
[4] = endpoint: mean survival time, dose: 100.0 mg/kg/injection, schedule: Q04DX002 (ip), vehicle: Klucel (hydroxypropylcellulose) (HPC)
[5] = endpoint: mean survival time, dose: 100.0 mg/kg/injection, schedule: Q04DX002 (ip), vehicle: saline
[6] = endpoint: mean survival time, dose: 200.0 mg/kg/injection, schedule: Q04DX002 (ip), vehicle: Klucel (hydroxypropylcellulose) (HPC)
[7] = endpoint: mean survival time, dose: 200.0 mg/kg/injection, schedule: Q04DX002 (ip), vehicle: saline
[8] = endpoint: mean survival time, dose: 400.0 mg/kg/injection, schedule: Q04DX002 (ip), vehicle: Klucel (hydroxypropylcellulose) (HPC)
[9] = endpoint: mean survival time, dose: 100.0 mg/kg/injection, schedule: Q01DX009 (ip), vehicle: Klucel (hydroxypropylcellulose) (HPC)
[10] = endpoint: mean survival time, dose: 100.0 mg/kg/injection, schedule: Q04DX003 (ip), vehicle: Klucel (hydroxypropylcellulose) (HPC)
[11] = endpoint: mean survival time, dose: 200.0 mg/kg/injection, schedule: Q01DX009 (ip), vehicle: Klucel (hydroxypropylcellulose) (HPC)
[12] = endpoint: mean survival time, dose: 200.0 mg/kg/injection, schedule: Q04DX003 (ip), vehicle: Klucel (hydroxypropylcellulose) (HPC)
[13] = endpoint: mean survival time, dose: 400.0 mg/kg/injection, schedule: Q01DX009 (ip), vehicle: Klucel (hydroxypropylcellulose) (HPC)
[14] = endpoint: mean survival time, dose: 400.0 mg/kg/injection, schedule: Q04DX003 (ip), vehicle: Klucel (hydroxypropylcellulose) (HPC)
[15] = endpoint: mean survival time, dose: 100.0 mg/kg/injection, schedule: Q01DX009 (ip), vehicle: saline with Tween-80
[16] = endpoint: mean survival time, dose: 100.0 mg/kg/injection, schedule: Q04DX003 (ip), vehicle: saline with Tween-80
[17] = endpoint: mean survival time, dose: 200.0 mg/kg/injection, schedule: Q01DX009 (ip), vehicle: saline with Tween-80
[18] = endpoint: mean survival time, dose: 200.0 mg/kg/injection, schedule: Q04DX003 (ip), vehicle: saline with Tween-80
[19] = endpoint: mean survival time, dose: 400.0 mg/kg/injection, schedule: Q01DX009 (ip), vehicle: saline with Tween-80
[20] = endpoint: mean survival time, dose: 50.0 mg/kg/injection, schedule: Q01DX001 (ip), vehicle: carboxymethylcellulose (CMC)
[21] = endpoint: mean survival time, dose: 100.0 mg/kg/injection, schedule: Q01DX001 (ip), vehicle: carboxymethylcellulose (CMC)
[22] = endpoint: mean survival time, dose: 200.0 mg/kg/injection, schedule: Q01DX001 (ip), vehicle: carboxymethylcellulose (CMC)
[23] = endpoint: mean survival time, dose: 400.0 mg/kg/injection, schedule: Q01DX001 (ip), vehicle: carboxymethylcellulose (CMC)
[24] = endpoint: mean survival time, dose: 100.0 mg/kg/injection, schedule: Q01DX001 (ip), vehicle: saline with Tween-80
[25] = endpoint: mean survival time, dose: 200.0 mg/kg/injection, schedule: Q01DX001 (ip), vehicle: saline with Tween-80
[26] = endpoint: mean survival time, dose: 400.0 mg/kg/injection, schedule: Q01DX001 (ip), vehicle: saline with Tween-80

CC1(C)CNC(=O)O1
T/C [1]: 108 % of control
T/C [2]: 111 % of control
T/C [3]: 100 % of control

O=C(Sc1n[nH]c(=O)[nH]c1=O)c1ccccc1
T/C [1]: 109 % of control
T/C [2]: 107 % of control
T/C [3]: 105 % of control

C1=NC(c2ccccc2)=CN(C2CCCC2)C1(c1ccccc1)C1CCCC1 (centres undefined)
T/C (endpoint: mean survival time, dose: 50.0 mg/kg/injection, schedule: Q04DX002 (ip), vehicle: saline): 105 % of control
T/C [4]: 98 % of control
T/C [5]: 108 % of control
T/C [6]: 98 % of control
T/C [7]: 108 % of control
T/C [8]: 109 % of control

CCCCCCCCCCCCNC(=O)Nc1cc(C)ccc1C
T/C [9]: 97 % of control
T/C [10]: 94 % of control
T/C [11]: 86 % of control
T/C [12]: 95 % of control
T/C [13]: 86 % of control
T/C [14]: 97 % of control

SCc1ccc(Cl)cc1.[Pb]
T/C (endpoint: mean survival time, dose: 100.0 mg/kg/injection, schedule: Q04DX002 (ip), vehicle: gum acacia): 88 % of control
T/C (endpoint: mean survival time, dose: 200.0 mg/kg/injection, schedule: Q04DX002 (ip), vehicle: gum acacia): 98 % of control
T/C (endpoint: mean survival time, dose: 400.0 mg/kg/injection, schedule: Q04DX002 (ip), vehicle: gum acacia): 109 % of control

COC1(OC)C2C=CC1C1C2C2C1C1C=CC2C1(OC)OC (centres undefined)
T/C [15]: 103 % of control
T/C [16]: 94 % of control
T/C [17]: 95 % of control
T/C [18]: 92 % of control
T/C [19]: 100 % of control
T/C (endpoint: mean survival time, dose: 400.0 mg/kg/injection, schedule: Q04DX003 (ip), vehicle: saline with Tween-80): 89 % of control

O=S(O)c1ccccc1
T/C (endpoint: mean survival time, dose: 100.0 mg/kg/injection, schedule: Q01DX009 (ip), vehicle: saline): 96 % of control
T/C (endpoint: mean survival time, dose: 200.0 mg/kg/injection, schedule: Q01DX009 (ip), vehicle: saline): 105 % of control
T/C (endpoint: mean survival time, dose: 400.0 mg/kg/injection, schedule: Q01DX009 (ip), vehicle: saline): 103 % of control

Cc1ccccc1C(O)C(Cl)(Cl)Cl (centres undefined)
T/C (endpoint: median survival time, dose: 50.0 mg/kg/injection, schedule: Q04DX003 (ip), vehicle: Klucel (hydroxypropylcellulose) (HPC)): 118 % of control
T/C (endpoint: median survival time, dose: 200.0 mg/kg/injection, schedule: Q04DX003 (ip), vehicle: Klucel (hydroxypropylcellulose) (HPC)): 157 % of control
T/C (endpoint: median survival time, dose: 400.0 mg/kg/injection, schedule: Q04DX003 (ip), vehicle: Klucel (hydroxypropylcellulose) (HPC)): 204 % of control

COc1c(NC(=O)c2ccc([N+](=O)[O-])cc2)cccc1[N+](=O)[O-]
T/C [4]: 89 % of control
T/C [6]: 95 % of control
T/C [8]: 89 % of control

C/C=C(\C)C(C#N)CCCC (centres undefined)
T/C (endpoint: mean survival time, dose: 75.0 mg/kg/injection, schedule: Q01DX001 (ip), vehicle: carboxymethylcellulose (CMC)): 95 % of control
T/C (endpoint: mean survival time, dose: 150.0 mg/kg/injection, schedule: Q01DX001 (ip), vehicle: carboxymethylcellulose (CMC)): 106 % of control
T/C (endpoint: mean survival time, dose: 300.0 mg/kg/injection, schedule: Q01DX001 (ip), vehicle: carboxymethylcellulose (CMC)): 95 % of control

COc1cc(OC)c(N=Cc2ccc([N+](=O)[O-])s2)cc1Cl
T/C [10]: 101 % of control
T/C [12]: 101 % of control
T/C [14]: 95 % of control

CN=NNc1nc[nH]c1C(=O)OC
T/C [20]: 118 % of control
T/C [21]: 118 % of control
T/C [22]: 118 % of control
T/C [23]: 113 % of control

C1=C(c2ccccc2)N2CCN=C2S1
T/C [20]: 100 % of control

CC(=O)OCC1OC(N2C(=O)/C(=C/c3ccc4ccccc4c3)SC2=S)C(OC(C)=O)C(OC(C)=O)C1OC(C)=O (centres undefined)
T/C (endpoint: mean survival time, dose: 25.0 mg/kg/injection, schedule: Q01DX005 (ip), vehicle: other): 92 % of control
T/C (endpoint: mean survival time, dose: 50.0 mg/kg/injection, schedule: Q01DX005 (ip), vehicle: other): 97 % of control

O=[N+]([O-])c1cccc(NSNc2cccc([N+](=O)[O-])c2)c1
T/C (endpoint: mean survival time, dose: 50.0 mg/kg/injection, schedule: Q01DX001 (ip), vehicle: Klucel (hydroxypropylcellulose) (HPC)): 100 % of control
T/C (endpoint: mean survival time, dose: 100.0 mg/kg/injection, schedule: Q01DX001 (ip), vehicle: Klucel (hydroxypropylcellulose) (HPC)): 98 % of control
T/C (endpoint: mean survival time, dose: 200.0 mg/kg/injection, schedule: Q01DX001 (ip), vehicle: Klucel (hydroxypropylcellulose) (HPC)): 87 % of control

O=C(NNc1ccccc1)Nc1ccccc1
T/C [9]: 107 % of control

O=C(O)CSCc1ccc(Cl)cc1
T/C (endpoint: mean survival time, dose: 100.0 mg/kg/injection, schedule: Q01DX001 (ip), vehicle: acetone): 95 % of control
T/C [10]: 94 % of control
T/C (endpoint: mean survival time, dose: 200.0 mg/kg/injection, schedule: Q01DX001 (ip), vehicle: acetone): 97 % of control
T/C [12]: 98 % of control
T/C (endpoint: mean survival time, dose: 400.0 mg/kg/injection, schedule: Q01DX001 (ip), vehicle: acetone): 97 % of control
T/C [14]: 98 % of control

COC(C)C1(C)NC(=O)NC1=O (centres undefined)
T/C [1]: 114 % of control
T/C [2]: 110 % of control
T/C [3]: 102 % of control

Oc1ccc(Cl)cc1/C=N/Nc1nnc(N/N=C/c2cc(Cl)ccc2O)c2ccccc12
T/C [20]: 90 % of control
T/C [21]: 93 % of control
T/C [22]: 95 % of control
T/C [23]: 95 % of control

CC(C)(C)C(=O)CC(=O)C(C)(C)C.CC(C)(C)C(=O)CC(=O)C(C)(C)C.CC(C)(C)C(=O)CC(=O)C(C)(C)C.[Eu]
T/C [4]: 97 % of control
T/C [6]: 106 % of control
T/C [8]: 87 % of control

Nc1cc(Cl)c(N)c(N)n1
T/C [24]: 94 % of control
T/C [25]: 109 % of control
T/C [26]: 108 % of control

CSc1nncc(=O)[nH]1.[Hg]
T/C (endpoint: mean survival time, dose: 5.0 mg/kg/injection, schedule: Q01DX001 (ip), vehicle: carboxymethylcellulose (CMC)): 91 % of control
T/C (endpoint: mean survival time, dose: 10.0 mg/kg/injection, schedule: Q01DX001 (ip), vehicle: carboxymethylcellulose (CMC)): 102 % of control

O=C(Nc1ccccc1)N1CC12CCCCC2
T/C [10]: 104 % of control
T/C [11]: 98 % of control
T/C [12]: 110 % of control
T/C [13]: 95 % of control
T/C [14]: 100 % of control

CNN=C(C)C
T/C (endpoint: mean survival time, dose: 12.5 mg/kg/injection, schedule: Q01DX001 (ip), vehicle: saline): 94 % of control
T/C (endpoint: mean survival time, dose: 12.5 mg/kg/injection, schedule: Q01DX009 (ip), vehicle: saline): 105 % of control
T/C (endpoint: mean survival time, dose: 12.5 mg/kg/injection, schedule: Q04DX003 (ip), vehicle: saline): 96 % of control
T/C (endpoint: mean survival time, dose: 25.0 mg/kg/injection, schedule: Q01DX001 (ip), vehicle: saline): 94 % of control
T/C (endpoint: mean survival time, dose: 25.0 mg/kg/injection, schedule: Q01DX009 (ip), vehicle: saline): 100 % of control
T/C (endpoint: mean survival time, dose: 25.0 mg/kg/injection, schedule: Q04DX003 (ip), vehicle: saline): 98 % of control
T/C (endpoint: mean survival time, dose: 50.0 mg/kg/injection, schedule: Q01DX001 (ip), vehicle: saline): 97 % of control
T/C (endpoint: mean survival time, dose: 50.0 mg/kg/injection, schedule: Q04DX003 (ip), vehicle: saline): 98 % of control

O=C1SC2(CCCCC2)SC1=O
T/C (endpoint: mean survival time, dose: 50.0 mg/kg/injection, schedule: Q01DX009 (ip), vehicle: saline with Tween-80): 110 % of control
T/C [15]: 113 % of control
T/C [16]: 110 % of control
T/C [18]: 100 % of control

O=S1Cc2cc3ccccc3cc2C1
T/C [24]: 102 % of control
T/C [25]: 103 % of control
T/C [26]: 108 % of control

Cc1ccc(C(=O)N/N=C/c2ccccc2Cl)cc1
T/C [4]: 101 % of control
T/C [6]: 93 % of control
T/C [8]: 104 % of control

Cc1nc(-c2ccc3ccc4cccnc4c3n2)no1
T/C (endpoint: mean survival time, dose: 50.0 mg/kg/injection, schedule: Q04DX003 (ip), vehicle: saline with Tween-80): 93 % of control
T/C [18]: 86 % of control

O=C(NCc1ccncc1)Nc1ccccc1Cl
T/C [5]: 97 % of control
T/C [7]: 87 % of control

OC1CCOC1 (centres undefined)
T/C [15]: 98 % of control
T/C [17]: 97 % of control
T/C [19]: 98 % of control
